Target mRNA knockdown data for 20 substances are collected here from the OligoGym collection.

HELM strings list units from the 5' end as sugar, base in round brackets, then linkage (d deoxyribose, r ribose, m 2'-O-methyl, p phosphodiester). Strings are as the collection lists them, not checked against the first reports. ss, as = sense and antisense strand; [fl2r] = 2'-fluoro
Note: test system not given here.

For the data set the following is noted: siRNA.
The substance “RNA1{r(A)p.r(A)p.r(A)p.r(C)p.r(G)p.r(A)p.m(G)p.r(A)p.r(G)p.r(A)p.r(G)p.r(C)p.r(C)p.m(C)p.r(A)p.r(C)p.r(C)p.r(U)p.r(U)p.r(T)p.r(T)}|RNA2{r(A)p.r(A)p.r(G)p.r(G)p.m(U)p.m(G)p.r(G)p.r(G)p.r(C)p.r(U)p.r(C)p.r(U)p.r(C)p.r(U)p.r(C)p.r(G)p.r(U)p.r(U)p.r(U)p.r(T)p.r(T)}$$$RNA1{StrandType:ss}|RNA2{StrandType:as}$” registered a target mRNA knockdown of 56%.

Turning to “RNA1{r(A)p.r(A)p.r(A)p.r(C)p.r(G)p.r(A)p.r(G)p.r(A)p.r(G)p.r(A)p.r(G)p.r(C)p.r(C)p.r(C)p.r(A)p.r(C)p.r(C)p.r(U)p.r(U)p.r(T)p.r(T)}|RNA2{r(A)p.r(A)p.r(G)p.r(G)p.m(U)p.r(G)p.r(G)p.r(G)p.r(C)p.r(U)p.r(C)p.r(U)p.r(C)p.r(U)p.r(C)p.r(G)p.r(U)p.r(U)p.r(U)p.r(T)p.r(T)}$$$RNA1{StrandType:ss}|RNA2{StrandType:as}$”, the target mRNA knockdown is 57%.

In turn, “RNA1{r(A)p.r(A)p.r(A)p.r(C)p.r(G)p.r(U)p.r(G)p.r(A)p.r(C)p.r(U)p.r(U)p.m(U)p.r(G)p.r(G)p.r(U)p.r(U)p.r(C)p.r(C)p.r(U)p.r(T)p.r(T)}|RNA2{r(A)p.r(G)p.r(G)p.r(A)p.r(A)p.r(C)p.r(C)p.r(A)p.r(A)p.r(A)p.r(G)p.r(U)p.m(C)p.r(A)p.r(C)p.r(G)p.r(U)p.r(U)p.r(U)p.r(T)p.r(T)}$$$RNA1{StrandType:ss}|RNA2{StrandType:as}$” had a target mRNA knockdown of 83%.

“RNA1{r(A)p.r(A)p.r(A)p.r(G)p.r(C)p.r(G)p.r(G)p.m(U)p.m(G)p.r(G)p.r(A)p.r(U)p.m(C)p.r(A)p.r(G)p.r(C)p.r(U)p.r(C)p.r(U)p.r(T)p.r(T)}|RNA2{r(A)p.r(G)p.r(A)p.r(G)p.r(C)p.m(U)p.r(G)p.r(A)p.r(U)p.r(C)p.m(C)p.m(A)p.r(C)p.r(C)p.r(G)p.r(C)p.r(U)p.r(U)p.r(U)p.r(T)p.r(T)}$$$RNA1{StrandType:ss}|RNA2{StrandType:as}$” showed a target mRNA knockdown of 63%.

Consider “RNA1{r(A)p.r(A)p.r(A)p.r(G)p.r(C)p.r(G)p.r(G)p.r(U)p.r(G)p.r(G)p.r(A)p.r(U)p.r(C)p.r(A)p.r(G)p.r(C)p.r(U)p.r(C)p.r(U)p.r(T)p.r(T)}|RNA2{r(A)p.r(G)p.r(A)p.r(G)p.r(C)p.m(U)p.r(G)p.r(A)p.r(U)p.r(C)p.m(C)p.r(A)p.r(C)p.r(C)p.r(G)p.r(C)p.r(U)p.r(U)p.r(U)p.r(T)p.r(T)}$$$RNA1{StrandType:ss}|RNA2{StrandType:as}$”, for which the target mRNA knockdown was determined as 67%.

Turning to “RNA1{r(A)p.r(A)p.r(A)p.r(G)p.r(G)p.r(G)p.r(G)p.r(A)p.r(G)p.r(U)p.m(U)p.r(G)p.r(C)p.m(U)p.r(G)p.r(G)p.r(A)p.r(A)p.r(G)p.r(T)p.r(T)}|RNA2{r(C)p.r(U)p.r(U)p.r(C)p.m(C)p.r(A)p.r(G)p.m(C)p.r(A)p.r(A)p.r(C)p.r(U)p.r(C)p.r(C)p.r(C)p.r(C)p.r(U)p.r(U)p.r(U)p.r(T)p.r(T)}$$$RNA1{StrandType:ss}|RNA2{StrandType:as}$”, the target mRNA knockdown was 74%.

Substance “RNA1{r(A)p.r(A)p.r(A)p.r(G)p.r(G)p.r(G)p.r(G)p.r(A)p.r(G)p.r(U)p.m(U)p.r(G)p.r(C)p.m(U)p.r(G)p.r(G)p.r(A)p.r(A)p.r(G)p.r(T)p.r(T)}|RNA2{r(C)p.r(U)p.r(U)p.r(C)p.m(C)p.r(A)p.r(G)p.r(C)p.r(A)p.r(A)p.r(C)p.r(U)p.r(C)p.r(C)p.r(C)p.r(C)p.r(U)p.r(U)p.r(U)p.r(T)p.r(T)}$$$RNA1{StrandType:ss}|RNA2{StrandType:as}$” yielded a target mRNA knockdown of 76%.

The substance “RNA1{r(A)p.r(A)p.r(C)p.r(A)p.r(G)p.r(C)p.r(C)p.r(U)p.r(U)p.r(A)p.r(C)p.r(C)p.r(C)p.r(C)p.r(G)p.r(A)p.r(U)p.r(U)p.r(C)p.r(T)p.r(T)}|RNA2{r(G)p.r(A)p.r(A)p.r(U)p.r(C)p.r(G)p.r(G)p.r(G)p.r(G)p.m(U)p.r(A)p.r(A)p.r(G)p.r(G)p.r(C)p.r(U)p.r(G)p.r(U)p.r(U)p.r(T)p.r(T)}$$$RNA1{StrandType:ss}|RNA2{StrandType:as}$” displayed a target mRNA knockdown of 69%.

Substance “RNA1{r(A)p.r(A)p.r(C)p.r(A)p.r(G)p.r(U)p.r(C)p.r(C)p.r(U)p.m(U)p.r(A)p.r(G)p.r(C)p.m(U)p.r(A)p.r(C)p.r(G)p.r(C)p.m(U)p.r(T)p.r(T)}|RNA2{r(A)p.r(G)p.r(C)p.r(G)p.m(U)p.r(A)p.r(G)p.r(C)p.r(U)p.r(A)p.r(A)p.r(G)p.r(G)p.r(A)p.r(C)p.r(U)p.r(G)p.r(U)p.r(U)p.r(T)p.r(T)}$$$RNA1{StrandType:ss}|RNA2{StrandType:as}$” showed a target mRNA knockdown of 82%.

On to “RNA1{r(A)p.r(A)p.r(C)p.r(C)p.[fl2r](C)p.r(A)p.r(C)p.r(C)p.r(A)p.[fl2r](C)p.r(A)p.r(G)p.r(C)p.[fl2r](U)p.r(A)p.r(G)p.r(A)p.r(A)p.r(C)p.r(U)p.r(U)}|RNA2{r(G)p.r(U)p.r(U)p.r(C)p.[fl2r](U)p.r(A)p.r(G)p.r(C)p.[fl2r](U)p.r(G)p.[fl2r](U)p.r(G)p.r(G)p.[fl2r](U)p.r(G)p.r(G)p.r(G)p.r(U)p.r(U)p.r(U)p.r(U)}$$$RNA1{StrandType:ss}|RNA2{StrandType:as}$”, for which the target mRNA knockdown stood at 79%.

Turning to “RNA1{r(A)p.r(A)p.r(C)p.r(C)p.[fl2r](C)p.r(A)p.r(C)p.r(C)p.r(A)p.r(C)p.r(A)p.r(G)p.r(C)p.[fl2r](U)p.r(A)p.r(G)p.r(A)p.r(A)p.r(C)p.r(U)p.r(U)}|RNA2{r(G)p.r(U)p.r(U)p.r(C)p.[fl2r](U)p.[fl2r](A)p.r(G)p.r(C)p.[fl2r](U)p.r(G)p.r(U)p.r(G)p.r(G)p.r(U)p.r(G)p.r(G)p.r(G)p.r(U)p.r(U)p.r(U)p.r(U)}$$$RNA1{StrandType:ss}|RNA2{StrandType:as}$”, the target mRNA knockdown amounted to 86%.

Substance “RNA1{r(A)p.r(A)p.r(C)p.r(C)p.m(C)p.r(A)p.r(A)p.r(A)p.r(G)p.r(G)p.r(G)p.m(G)p.r(A)p.r(G)p.r(U)p.m(U)p.r(G)p.r(C)p.r(U)p.r(T)p.r(T)}|RNA2{r(A)p.r(G)p.m(C)p.r(A)p.r(A)p.r(C)p.r(U)p.r(C)p.r(C)p.r(C)p.r(C)p.r(U)p.r(U)p.m(U)p.r(G)p.r(G)p.r(G)p.r(U)p.r(U)p.r(T)p.r(T)}$$$RNA1{StrandType:ss}|RNA2{StrandType:as}$” registered a target mRNA knockdown of 92%.

“RNA1{r(A)p.r(A)p.r(C)p.r(C)p.r(C)p.r(A)p.r(A)p.r(A)p.r(G)p.r(G)p.r(G)p.r(G)p.r(A)p.r(G)p.r(U)p.m(U)p.r(G)p.r(C)p.r(U)p.r(T)p.r(T)}|RNA2{r(A)p.r(G)p.r(C)p.r(A)p.r(A)p.r(C)p.r(U)p.r(C)p.r(C)p.r(C)p.r(C)p.r(U)p.r(U)p.m(U)p.r(G)p.r(G)p.r(G)p.r(U)p.r(U)p.r(T)p.r(T)}$$$RNA1{StrandType:ss}|RNA2{StrandType:as}$” gave a target mRNA knockdown of 83%.

As to “RNA1{r(A)p.r(A)p.r(C)p.r(C)p.r(C)p.r(A)p.r(C)p.r(C)p.r(A)p.r(C)p.r(A)p.[fl2r](G)p.r(C)p.[fl2r](U)p.[fl2r](A)p.[fl2r](G)p.r(A)p.r(A)p.r(C)p.r(U)p.r(U)}|RNA2{r(A)p.r(A)p.r(G)p.r(U)p.r(U)p.r(C)p.r(U)p.r(A)p.r(G)p.r(C)p.r(U)p.r(G)p.r(U)p.r(G)p.r(G)p.r(U)p.r(G)p.r(G)p.r(G)p.r(U)p.r(U)}$$$RNA1{StrandType:ss}|RNA2{StrandType:as}$”, the target mRNA knockdown came out at 75%.

On to “RNA1{r(A)p.r(A)p.r(C)p.r(C)p.r(C)p.r(A)p.r(C)p.r(C)p.r(A)p.r(C)p.r(A)p.r(G)p.r(C)p.[fl2r](U)p.[fl2r](A)p.r(G)p.r(A)p.r(A)p.r(C)p.r(U)p.r(U)}|RNA2{r(A)p.r(A)p.r(G)p.r(U)p.r(U)p.r(C)p.[fl2r](U)p.[fl2r](A)p.r(G)p.r(C)p.r(U)p.r(G)p.r(U)p.r(G)p.r(G)p.r(U)p.r(G)p.r(G)p.r(G)p.r(U)p.r(U)}$$$RNA1{StrandType:ss}|RNA2{StrandType:as}$”, for which the target mRNA knockdown was found to be 57%.

The substance “RNA1{r(A)p.r(A)p.r(C)p.r(C)p.r(C)p.r(A)p.r(C)p.r(C)p.r(A)p.r(C)p.r(A)p.r(G)p.r(C)p.m(U)p.m(A)p.r(G)p.r(A)p.r(A)p.r(C)p.m(U)p.m(U)}|RNA2{r(A)p.r(A)p.r(G)p.m(U)p.m(U)p.r(C)p.m(U)p.m(A)p.r(G)p.r(C)p.m(U)p.r(G)p.m(U)p.r(G)p.r(G)p.m(U)p.r(G)p.r(G)p.r(G)p.m(U)p.m(U)}$$$RNA1{StrandType:ss}|RNA2{StrandType:as}$” returned a target mRNA knockdown of 24%.

On to “RNA1{r(A)p.r(A)p.r(C)p.r(C)p.r(C)p.r(A)p.r(C)p.r(C)p.r(A)p.r(C)p.r(A)p.r(G)p.r(C)p.m(U)p.m(A)p.r(G)p.r(A)p.r(A)p.r(C)p.m(U)p.m(U)}|RNA2{r(A)p.r(A)p.r(G)p.r(U)p.r(U)p.r(C)p.m(U)p.m(A)p.r(G)p.r(C)p.r(U)p.r(G)p.r(U)p.r(G)p.r(G)p.r(U)p.r(G)p.r(G)p.r(G)p.r(U)p.r(U)}$$$RNA1{StrandType:ss}|RNA2{StrandType:as}$”, for which the target mRNA knockdown turned out to be 51%.

“RNA1{r(A)p.r(A)p.r(C)p.r(C)p.r(C)p.r(A)p.r(C)p.r(C)p.r(A)p.r(C)p.r(A)p.r(G)p.r(C)p.m(U)p.m(A)p.r(G)p.r(A)p.r(A)p.r(C)p.r(U)p.r(U)}|RNA2{r(A)p.r(A)p.r(G)p.r(U)p.r(U)p.r(C)p.r(U)p.r(A)p.r(G)p.r(C)p.r(U)p.r(G)p.r(U)p.r(G)p.r(G)p.r(U)p.r(G)p.r(G)p.r(G)p.r(U)p.r(U)}$$$RNA1{StrandType:ss}|RNA2{StrandType:as}$” had a target mRNA knockdown of 79%.

The substance “RNA1{r(A)p.r(A)p.r(C)p.r(C)p.r(C)p.r(A)p.r(C)p.r(C)p.r(A)p.r(C)p.r(A)p.r(G)p.r(C)p.m(U)p.r(A)p.r(G)p.r(A)p.r(A)p.r(C)p.m(U)p.m(U)}|RNA2{r(A)p.r(A)p.r(G)p.r(U)p.r(U)p.r(C)p.m(U)p.r(A)p.r(G)p.r(C)p.r(U)p.r(G)p.r(U)p.r(G)p.r(G)p.r(U)p.r(G)p.r(G)p.r(G)p.r(U)p.r(U)}$$$RNA1{StrandType:ss}|RNA2{StrandType:as}$” registered a target mRNA knockdown of 81%.

For the substance “RNA1{r(A)p.r(A)p.r(C)p.r(C)p.r(C)p.r(A)p.r(C)p.r(C)p.r(A)p.r(C)p.r(A)p.r(G)p.r(C)p.m(U)p.r(A)p.r(G)p.r(A)p.r(A)p.r(C)p.m(U)p.m(U)}|RNA2{r(A)p.r(A)p.r(G)p.r(U)p.r(U)p.r(C)p.r(U)p.r(A)p.r(G)p.r(C)p.r(U)p.r(G)p.r(U)p.r(G)p.r(G)p.r(U)p.r(G)p.r(G)p.r(G)p.r(U)p.r(U)}$$$RNA1{StrandType:ss}|RNA2{StrandType:as}$”, the target mRNA knockdown worked out at 81%.
